US7223797B2, “Meldonium salts, method of their preparation and pharmaceutical composition on their basis” (Joint Stock Company “Grindeks”, priority 2003, dated 2007)

Assays:
[1] = Sample hygroscopicity test: H2O content before and after 24 hours at 100% humidity; format: physicochemical; details: for Initial H2O content in the sample: before the test; for Initial H2O content in the sample / H2O content after 24 hours maintenance at 100% humidity: Fischer titration; for hygroscopicity (in words): qualitative statement; for H2O content after 24 hours maintenance at 100% humidity: closed vessel over water
Description: Sample hygroscopicity was tested by H2O content determination before the test and after 24 hours maintenance at 100% humidity (keeping in a closed vessel over water). On such conditions, Meldonium absorbs 10% water (as to mass increase) during 24 hours. Water content was determined by titration by Fischer's method; in cases of syrup formation water content is determined by sample mass increase.

[2] = rats; cited from earlier work
[3] = humans; cited from earlier work
[4] = Thermal / storage stability; format: physicochemical; details: qualitative statement

| Sample mass increase due to absorbed water ([1]; 24 hours at 100% humidity) [%] | Initial H2O content in the sample [1] | H2O content after 24 hours maintenance at 100% humidity [1] | Molecule | other results |
| --- | --- | --- | --- | --- |
| 12 | 1.17% | – | C[N+](C)(C)NCCC(=O)O.O=C([O-])C(Cl)Cl [Meldonium dichloroacetate (1:1)] | – |
| – | 9,4824% | 17.0854% | C[N+](C)(C)NCCC(=O)O.C[N+](C)(C)NCCC(=O)O.NCCS(=O)(=O)[O-].NCCS(=O)(=O)[O-].O.O.O [Meldonium 2-aminoethane sulfonate (taurate; 1:1; ×1.5H2O)] | – |
| – | 1.98% | 12.8% | C[N+](C)(C)NCCC(=O)[O-].O=C(O)C(O)C(O)C(O)C(O)C(=O)O (stereo not shown) [Meldonium mucate (galactarate; 1:1)] | – |
| – | 9.45% | – | C[N+](C)(C)NCCC(=O)O.O.O.O=C([O-])CC(O)(CC(=O)[O-])C(=O)[O-].[Mg+2] [Meldonium magnesium citrate (1:1:1; ×2H2O)] | State of the sample after maintenance at 100% humidity ([1]; 24 hours at 100% humidity): the sample diffused |
| 9 | 1.71% | – | C[N+](C)(C)NCCC(=O)O.O.O=C([O-])c1cc2ccccc2c(Cc2c(O)c(C(=O)O)cc3ccccc23)c1O [Meldonium pamoate (1:1; ×H2O)] | – |
| – | 3.0414% | 7.6830% | C[N+](C)(C)NCCC(=O)[O-].C[N+](C)(C)NCCC(=O)[O-].O.O=C(O)C(O)C(O)C(O)C(O)C(=O)O (stereo not shown) [Meldonium mucate (galactarate; 2:1; ×H2O)] | – |
| – | 0.18% | remains unchanged | C[N+](C)(C)NCCC(=O)[O-].O=C(O)C=CC(=O)O [Meldonium fumarate (1:1)] | – |
| 11.8 | 0.313% | – | C[N+](C)(C)NCCC(=O)O.C[N+](C)(C)NCCC(=O)O.O=S(=O)([O-])[O-] [Meldonium sulfate (2:1)] | – |
| – | 0.3919% | remains unchanged | C[N+](C)(C)NCCC(=O)[O-] [Meldonium orotate (1:1)] | – |
| – | 1.5136% | 13.4707% | C[N+](C)(C)NCCC(=O)[O-].C[N+](C)(C)NCCC(=O)[O-].O=C(O)C=CC(=O)O [Meldonium fumarate (2:1)] | – |

The next lines start with the molecule.

| Molecule | Sample mass increase due to absorbed water ([1]; 24 hours at 100% humidity) [%] | Initial H2O content in the sample [1] | H2O content after 24 hours maintenance at 100% humidity [1] | other results |
| --- | --- | --- | --- | --- |
| acetate [reference compound] | – | – | – | hygroscopicity (in words) [1]: hygroscopic |
| C[N+](C)(C)NCCC(=O)[O-].C[N+](C)(C)NCCC(=O)[O-].O=C(O)C=CC(=O)O [Meldonium maleate (2:1)] | 18 | 1.3595% | – | – |
| C[N+](C)(C)NCCC(=O)O.O=C([O-])C(=O)O [Meldonium oxalate (1:1)] | – | 0.1661% | 3.1211% | – |
| C[N+](C)(C)NCCC(=O)O.O=C([O-])C=CC(=O)O [Meldoniuma maleate (1:1)] | – | 0.387% | 4.6844% | – |
| C[N+](C)(C)NCCC(=O)O.O=P([O-])(O)O [Meldonium phosphate (1:1)] | – | 0.0762% | remains unchanged | – |
| CN(CC(=O)O)C(=N)N.C[N+](C)(C)NCCC(=O)[O-].O.O.O [Meldonium creatinate (1:1; ×3H2O)] | 18 | 15.8% | – | – |
| CC(O)C(=O)O.C[N+](C)(C)NCCC(=O)[O-] [Meldonium lactate (1:1)] | – | – | – | hygroscopicity (in words) [1]: hygroscopic |
| C[N+](C)(C)NCCC(=O)O.NC(CC(=O)O)C(=O)[O-].O.O [Meldonium L-(+)-aspartate (1:1; ×2H2O)] | 18 | 12.5% | – | – |
| C[N+](C)(C)NCCC(=O)[O-].O.O.O=C([O-])CCC(=O)[O-].[Mg+2] [Meldonium magnesium succinate (1:1:1; ×2H2O)] | 20 | 10.1215% | – | – |
| Cl [hydrogen chloride, reference compound] | – | – | – | hygroscopicity (in words) [1]: hygroscopic |
| C[N+](C)(C)NCCC(=O)[O-] [Meldonium, 3-(2,2,2-trimethylhydrazinium) propionate] | – | – | – | half-elimination period compared with humans [2]: longer; half-elimination period [3]: 4 to 10 h; stability (in words) [4]: not very stable |
| citrate | – | – | – | hygroscopicity (in words) [1]: hygroscopic |
| C[N+](C)(C)NCCC(=O)O.O=S(=O)([O-])O [Meldonium sulfate (1:1)] | 20 | 1.4189% | – | – |
| C[N+](C)(C)NCCC(=O)[O-] [anhydrous form of Meldonium, reference compound] | – | – | – | stability (in words) [4]: unstable; hygroscopicity (in words) [1]: extremely hygroscopic |
| Meldonium sulfate | – | – | – | hygroscopicity (in words) [1]: hygroscopic |
